The source of these data is patent US20260028354A1, “TETRAHYDRONAPHTHALENE DERIVATIVES AS ESTROGEN RECEPTOR DEGRADERS” (REGENT OF THE UNIVERSITY OF MICHIGAN, priority 2022, published 2026).

Where two headings read alike, the source gives them in different places.

Assay [1] can be described thus: Cell growth assay (WST-8) for "B" compounds. The assay is classed as cell-based. The settings on record: T47D, read-out: Cell growth Inhibition in T47D cell line IC50. A digest of the protocol:
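Cells seeded at 1500/well overnight, then exposed to compounds for 4 days. 10% WST-8 added for 2.5 h at 37 °C and absorbance read at 450 nm. Growth given as absorbance relative to vehicle control, from three repeats.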

The target in the next assay is ER (Homo sapiens (Human), UniProt P03372). Put plainly: In-cell western blot analysis of ER for "B" compounds. The assay is classed as cell-based. Conditions: 16 hours, read-out: ICW DC50. In short, it runs like this:
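In-cell western: fixed cells stained with primary antibodies (2 h, RT), then anti-rabbit-680 and anti-mouse-800 secondaries (1:1000, 1 h, RT), imaged on a LI-COR plate reader. Relative ER level in treated wells expressed against untreated and DMSO-treated wells set as 100%.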

Chain of ER (P03372 whole entry): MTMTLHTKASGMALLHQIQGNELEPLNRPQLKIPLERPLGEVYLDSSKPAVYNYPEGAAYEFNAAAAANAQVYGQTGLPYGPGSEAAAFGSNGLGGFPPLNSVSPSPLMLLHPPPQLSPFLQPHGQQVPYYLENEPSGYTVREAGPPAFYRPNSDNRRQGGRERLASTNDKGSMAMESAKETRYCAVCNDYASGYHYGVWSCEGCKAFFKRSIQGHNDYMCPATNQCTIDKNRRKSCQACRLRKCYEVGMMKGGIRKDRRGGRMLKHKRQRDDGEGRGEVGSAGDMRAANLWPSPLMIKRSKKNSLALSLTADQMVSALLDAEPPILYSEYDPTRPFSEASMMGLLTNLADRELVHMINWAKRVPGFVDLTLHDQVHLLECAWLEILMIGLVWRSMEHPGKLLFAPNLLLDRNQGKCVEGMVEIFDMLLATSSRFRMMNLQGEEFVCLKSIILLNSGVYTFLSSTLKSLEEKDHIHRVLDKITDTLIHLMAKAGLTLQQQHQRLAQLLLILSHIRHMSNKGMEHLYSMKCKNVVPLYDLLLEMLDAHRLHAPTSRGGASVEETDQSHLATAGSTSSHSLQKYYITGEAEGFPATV

As for `O=C1CC[C@H](N2Cc3c(ccc4c3OC[C@H]3CN(CC5CCC6(CN(c7ccc([C@@H]8c9ccc(O)cc9CC[C@@H]8c8ccccc8)cc7)C6)OC5)CCN43)C2=O)C(=O)N1` (stereo partly drawn) [Compound B333, (3S)-3-((5aR)-7-((2-(4-((1R,2S)-6-hydroxy-2-phenyl-1,2,3,4-tetrahydronaphthalen-1-yl)phenyl)-5-oxa-2-azaspiro[3.5]nonan-7-yl)methyl)-1-oxo-1,3,5,5a,6,7,8,9-octahydro-2H-pyrazino[1′,2′:4,5][1,4]oxazino[2,3-e]isoindol-2-yl)piperidine-2,6-dione], the IC50 in assay [1] (T47D cell line) was under 1 nM. Further, at ER, the DC50 is under 10 nM.
On the same counts, the results for `O=C1CCC(N2Cc3cc4c(cc3C2=O)OC[C@@H]2CN(CC(=O)OC3CCN(c5ccc([C@@H]6c7ccc(O)cc7CC[C@@H]6c6ccccc6)cc5)CC3)CCN42)C(=O)N1` (stereo partly drawn) [Compound B342, 1-(4-((1R,2S)-6-hydroxy-2-phenyl-1,2,3,4-tetrahydronaphthalen-1-yl)phenyl)piperidin-4-yl 2-((4aS)-9-(2,6-dioxopiperidin-3-yl)-8-oxo-1,2,4a,5,9,10-hexahydro-8H-pyrazino[1′,2′:4,5][1,4]oxazino[2,3-f]isoindol-3(4H)-yl)acetate] are 1 to 10 nM and under 10 nM.
For `O=C1CCC(Nc2ccc(C3CCN(CC4COC5(CCN(c6ccc([C@@H]7c8ccc(O)cc8CC[C@@H]7c7ccccc7)cc6)CC5)OC4)CC3)cc2)C(=O)N1` (stereo partly drawn) [Compound B345, 3-((4-(1-((9-(4-((1R,2S)-6-hydroxy-2-phenyl-1,2,3,4-tetrahydronaphthalen-1-yl)phenyl)-1,5-dioxa-9-azaspiro[5.5]undecan-3-yl)methyl)piperidin-4-yl)phenyl)amino)piperidine-2,6-dione], the IC50 in assay [1] (T47D cell line) was in the range of 1 to 10 nM. Moreover, the DC50 at ER is over 100 nM.
On the same counts, the results for `O=C1CCC(Nc2ccc(C3CCN(CC4COC5(CCN(c6ccc([C@@H]7c8ccc(O)cc8CC[C@@H]7c7ccccc7)cc6)CC5)C4)CC3)cc2)C(=O)N1` (stereo partly drawn) [Compound B344, 3-((4-(1-((8-(4-((1R,2S)-6-hydroxy-2-phenyl-1,2,3,4-tetrahydronaphthalen-1-yl)phenyl)-1-oxa-8-azaspiro[4.5]decan-3-yl)methyl)piperidin-4-yl)phenyl)amino)piperidine-2,6-dione] are 1 to 10 nM and over 100 nM.
The corresponding values for `O=C1CCC(Nc2ccc(C3CCN(CC4COC5(CN(c6ccc([C@@H]7c8ccc(O)cc8CC[C@@H]7c7ccccc7)cc6)C5)OC4)CC3)cc2)C(=O)N1` (stereo partly drawn) [Compound B339, 3-((4-(1-((2-(4-((1R,2S)-6-hydroxy-2-phenyl-1,2,3,4-tetrahydronaphthalen-1-yl)phenyl)-5,9-dioxa-2-azaspiro[3.5]nonan-7-yl)methyl)piperidin-4-yl)phenyl)amino)piperidine-2,6-dione] are 1 to 10 nM and over 100 nM.
With `O=C1CCC(N2Cc3c(ccc4c3OCC43CCN(CC4CC5(CCN(c6ccc([C@@H]7c8ccc(O)cc8CC[C@@H]7c7ccccc7)cc6)CC5)CO4)CC3)C2=O)C(=O)N1` (stereo partly drawn) [Compound B175, 3-(1′-((8-(4-((1R,2S)-6-hydroxy-2-phenyl-1,2,3,4-tetrahydronaphthalen-1-yl)phenyl)-2-oxa-8-azaspiro[4.5]decan-3-yl)methyl)-6-oxo-6,8-dihydro-2H,7H-spiro[furo[2,3-e]isoindole-3,4′-piperidin]-7-yl)piperidine-2,6-dione], the IC50 in assay [1] is under 1 nM. Further, the DC50 on ER fell in the range of 10 to 100 nM.
`CN(C(=O)c1ccc2c(c1)OC[C@@H]1CN(CC3CC4(CCN(c5ccc([C@@H]6c7ccc(O)cc7CC[C@@H]6c6ccccc6)cc5)CC4)C3)CCN21)C1CCC(=O)NC1=O` (stereo partly drawn) [Compound B312, (4aS)-N-(2,6-dioxopiperidin-3-yl)-3-((7-(4-((1R,2S)-6-hydroxy-2-phenyl-1,2,3,4-tetrahydronaphthalen-1-yl)phenyl)-7-azaspiro[3.5]nonan-2-yl)methyl)-N-methyl-1,2,3,4,4a,5-hexahydrobenzo[b]pyrazino[1,2-d][1,4]oxazine-8-carboxamide]: the IC50 in assay [1] (T47D cell line) is under 1 nM. For the same compound, at ER, the DC50 was over 100 nM.
On the same counts, the results for `O=C1CCC(N2C(=O)c3cc4c(cc3C2=O)CN(CC2COC3(CCN(c5ccc([C@@H]6c7ccc(O)cc7CC[C@@H]6c6ccccc6)cc5)CC3)OC2)C4)C(=O)N1` (stereo partly drawn) [Compound B338, 2-(2,6-dioxopiperidin-3-yl)-6-((9-(4-((1R,2S)-6-hydroxy-2-phenyl-1,2,3,4-tetrahydronaphthalen-1-yl)phenyl)-1,5-dioxa-9-azaspiro[5.5]undecan-3-yl)methyl)-6,7-dihydropyrrolo[3,4-f]isoindole-1,3(2H,5H)-dione] are 1 to 10 nM and 10 to 100 nM.
For `O=C1CCC(N2Cc3c(ccc4c3OCC43CCN(CC4CCC5(CC4)CN(c4ccc([C@@H]6c7ccc(O)cc7CC[C@@H]6c6ccccc6)cc4)C5)CC3)C2=O)C(=O)N1` (stereo partly drawn) [Compound B228, 3-(1′-((2-(4-((1R,2S)-6-hydroxy-2-phenyl-1,2,3,4-tetrahydronaphthalen-1-yl)phenyl)-2-azaspiro[3.5]nonan-7-yl)methyl)-6-oxo-6,8-dihydro-2H,7H-spiro[furo[2,3-e]isoindole-3,4′-piperidin]-7-yl)piperidine-2,6-dione], the IC50 in assay [1] lay within 1 to 10 nM. Also, the DC50 on ER was under 10 nM.
In the case of `CN(C(=O)c1ccc2c(n1)OC[C@H]1CN(CC3COC4(CCN(c5ccc([C@@H]6c7ccc(O)cc7CC[C@@H]6c6ccccc6)cc5)CC4)C3)CCN21)C1CCC(=O)NC1=O` (stereo partly drawn) [Compound B237, (4aR)-N-(2,6-dioxopiperidin-3-yl)-3-((8-(4-((1R,2S)-6-hydroxy-2-phenyl-1,2,3,4-tetrahydronaphthalen-1-yl)phenyl)-1-oxa-8-azaspiro[4.5]decan-3-yl)methyl)-N-methyl-1,2,3,4,4a,5-hexahydropyrazino[1,2-d]pyrido[2,3-b][1,4]oxazine-8-carboxamide], the IC50 in assay [1] (T47D cell line) lay within 1 to 10 nM. Moreover, the DC50 on ER was over 100 nM.
The corresponding values for `O=C1CCC(N2C(=O)c3cc4c(cc3C2=O)N2C[C@@H](NCC3CC5(CCN(c6ccc([C@@H]7c8ccc(O)cc8CC[C@@H]7c7ccccc7)cc6)CC5)C3)C[C@H]2CO4)C(=O)N1` (stereo partly drawn) [Compound B329, (2S,3aS)-8-(2,6-dioxopiperidin-3-yl)-2-(((7-(4-((1R,2S)-6-hydroxy-2-phenyl-1,2,3,4-tetrahydronaphthalen-1-yl)phenyl)-7-azaspiro[3.5]nonan-2-yl)methyl)amino)-2,3,3a,4-tetrahydro-1H,7H-pyrrolo[1′,2′:4,5][1,4]oxazino[2,3-f]isoindole-7,9(8H)-dione] are over 10 nM and over 100 nM.
The corresponding values for `O=C1CC[C@H](NC(=O)c2ccc3c(n2)OC[C@H]2CN(CC4CCC5(CCN(c6ccc([C@@H]7c8ccc(O)cc8CC[C@@H]7c7ccccc7)cc6)CC5)C4)CCN32)C(=O)N1` (stereo partly drawn) [Compound B365, (4aR)-N-((S)-2,6-dioxopiperidin-3-yl)-3-((8-(4-((1R,2S)-6-hydroxy-2-phenyl-1,2,3,4-tetrahydronaphthalen-1-yl)phenyl)-8-azaspiro[4.5]decan-2-yl)methyl)-1,2,3,4,4a,5-hexahydropyrazino[1,2-d]pyrido[2,3-b][1,4]oxazine-8-carboxamide] are over 10 nM and 10 to 100 nM.
